The values below come from ChEMBL document CHEMBL1138027, “Dimethoxybenzo[i]phenanthridine-12-carboxylic acid derivatives and 6H-dibenzo[c,h][2,6]naphthyridin-5-ones with potent topoisomerase I-targeting activity and cytotoxicity” (Bioorg Med Chem Lett, 2004).

In test [1] the test system is KB 3-1. Kind of test: Concentration required to inhibit cell proliferation in KBH5.0 tumor cell line; overexpress BCRP. The settings on record: Homo sapiens. It is filed as functional, cell-based.
Test [2] concerns RPMI 8402. Kind of test: Concentration required to inhibit cell proliferation in […] tumor cell line. Format: functional, cell-based. The settings on record: Homo sapiens.
In test [3] the test system is KB 3-1. Kind of test: Concentration required to inhibit cell proliferation in KB3-1 tumor cell line. It is filed as functional, cell-based. The settings on record: Homo sapiens.
Test [4] has as its target T1, DNA topoisomerase 1 (Homo sapiens) (UniProt P11387).
T1 sequence (whole entry): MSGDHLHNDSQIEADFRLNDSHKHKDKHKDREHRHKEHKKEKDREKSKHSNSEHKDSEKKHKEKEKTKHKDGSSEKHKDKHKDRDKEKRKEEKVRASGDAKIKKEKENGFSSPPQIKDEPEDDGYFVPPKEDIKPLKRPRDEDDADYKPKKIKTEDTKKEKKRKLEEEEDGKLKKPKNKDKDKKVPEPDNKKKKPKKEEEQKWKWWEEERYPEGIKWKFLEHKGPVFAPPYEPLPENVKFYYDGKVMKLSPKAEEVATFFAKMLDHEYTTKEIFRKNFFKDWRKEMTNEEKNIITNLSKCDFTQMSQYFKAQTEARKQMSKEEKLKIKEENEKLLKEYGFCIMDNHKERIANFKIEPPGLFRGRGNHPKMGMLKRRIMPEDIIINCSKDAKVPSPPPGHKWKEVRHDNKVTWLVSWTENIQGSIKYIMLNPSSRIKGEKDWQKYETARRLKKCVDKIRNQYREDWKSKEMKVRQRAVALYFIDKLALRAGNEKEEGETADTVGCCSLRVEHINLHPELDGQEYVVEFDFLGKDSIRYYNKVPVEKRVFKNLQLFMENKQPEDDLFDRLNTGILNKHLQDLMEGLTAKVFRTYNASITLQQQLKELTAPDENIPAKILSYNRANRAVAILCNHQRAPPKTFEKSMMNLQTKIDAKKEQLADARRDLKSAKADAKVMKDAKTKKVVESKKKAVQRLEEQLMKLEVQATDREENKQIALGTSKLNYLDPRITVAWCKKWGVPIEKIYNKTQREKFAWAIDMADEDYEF
Kind of test: Relative effective concentration to cleave plasmid DNA with human topoisomerase I; compared to camptothecin=1.

Test [5] can be described thus: Concentration required to inhibit cell proliferation in P388/CPT-45 tumor cell line; camptothecin resistant. Format: functional. The settings on record: Mus musculus, P388CPT45.
In test [6] the test system is KB. Kind of test: Concentration required to inhibit cell proliferation in KBV-1 tumor cell line; overexpress MDR1. Conditions: Homo sapiens. Format: functional, cell-based.
In a further test the test system is P388. Kind of test: Concentration required to inhibit cell proliferation in P388 tumor cell line. It is filed as functional, cell-based. The settings on record: Mus musculus.
The subject of test [7] is RPMI 8402. Kind of test: Concentration required to inhibit cell proliferation in CPT-K5 tumor cell line; camptothecin resistant. Format: functional, cell-based. Conditions: Homo sapiens.
For test [8], the system named is KB. Kind of test: Concentration required to inhibit cell proliferation by 50% in KBV-1 tumor cell line; overexpress MDR1. Format: functional, cell-based. The settings on record: Homo sapiens.
The test system of test [9] is KB 3-1. Kind of test: Concentration required to inhibit cell proliferation by 50% in KB3-1 tumor cell line. It is filed as functional, cell-based. Conditions: Homo sapiens.
Test [10] can be described thus: Concentration required to inhibit cell proliferation by 50% in P388/CPT-45 tumor cell line; camptothecin resistant. Format: functional. The settings on record: Mus musculus, P388CPT45.
Test [11] relates to KB 3-1. Kind of test: Concentration required to inhibit cell proliferation by 50% in KBH5.0 tumor cell line; overexpress BCRP. The settings on record: Homo sapiens. It is filed as functional, cell-based.

In the case of `CC[C@@]1(O)C(=O)OCc2c1cc1n(c2=O)Cc2cc3c(CN(C)C)c(O)ccc3nc2-1` [TOPOTECAN], the IC50 was 440 nM in the test with KB 3-1 [1]; 20 nM with RPMI 8402 [2]; 40 nM in the test with KB 3-1 [3]; over 10000 nM in test [5]; 440 nM in the test on KB [6]; 40 nM in the test with P388. Besides, in the test with RPMI 8402 [7], the IC50 is over 10000 nM. For the same compound, the REC in test [4] turned out to be 5.
`COc1cc2c(C(=O)NCCN(C)C)cc3c4cc5c(cc4ncc3c2cc1OC)OCO5`: the half-inhibitory concentration (IC50) worked out at 3 nM with RPMI 8402 [2]; 100 nM in the test on KB [8]; 1 nM in the test with KB 3-1 [9]; 260 nM in test [10]; 30 nM in the test on KB 3-1 [11]; 2 nM in the test with P388. The same compound had an IC50 in the test on RPMI 8402 [7] of 1000 nM. In [4], this compound gave an REC of 0.5.
`COc1cc2c3cnc4cc5c(cc4c3c(=O)n(CCN3CCCCC3)c2cc1OC)OCO5`: the IC50 is 7 nM in the test on KB 3-1 [1]; 1 nM in the test on RPMI 8402 [2]; 6 nM in the test on KB 3-1 [3]; 230 nM in [5]; 6 nM in the test on KB [6]; 3 nM in the test with P388. The compound also gave a concentration for half-maximal inhibition (IC50) in the test with RPMI 8402 [7] of 1500 nM. In test [4], this compound gave an REC of 0.1.
Regarding `COc1cc2c(C(=O)OCCCN(C)C)cc3c4cc5c(cc4ncc3c2cc1OC)OCO5`, the IC50 in the test with RPMI 8402 [2] was 220 nM; in the test with KB [8], 2000 nM; in the test on KB 3-1 [9], 500 nM; in [10] it was 140 nM; in the test on KB 3-1 [11], 600 nM; in the test with P388 it was 110 nM. The same compound gave an IC50 in the test with RPMI 8402 [7] of 1500 nM. For the same compound, the REC in [4] turned out to be 7.
`COc1cc2c3cnc4cc5c(cc4c3c(=O)n(CCN(C)C)c2cc1OC)OCO5`: the 50% inhibitory concentration (IC50) in the test with RPMI 8402 [2] stood at 0.7 nM; with KB [8] it was 4 nM; with KB 3-1 [9], 2 nM; in test [10], 200 nM; with KB 3-1 [11] it was 4 nM; in the test on P388 it was 2 nM. In addition, in the test on RPMI 8402 [7], half-maximal inhibition (IC50) required 210 nM. Further, the REC in [4] was determined as 3.
On to `CCN(CC)CCn1c(=O)c2c3cc4c(cc3ncc2c2cc(OC)c(OC)cc21)OCO4`, for which the IC50 in the test on KB 3-1 [1] is 5 nM; in the test on RPMI 8402 [2] it was 3 nM; with KB 3-1 [3] it was 3 nM; in [5] it was 30 nM; in the test on KB [6], 10 nM; with P388, 3 nM. Also, the IC50 in the test on RPMI 8402 [7] was 900 nM. In addition, the REC in [4] is 0.7.
For the compound `COc1cc2c(=O)n(CCN(C)C)c3c4cc5c(cc4ncc3c2cc1OC)OCO5`, the IC50 in the test with KB 3-1 [1] was found to be 6 nM; in the test with KB 3-1 [3], 5 nM; in test [5], 230 nM; with KB [6], 5 nM; in the test on P388, 1 nM; in the test on RPMI 8402 [7] it was 900 nM.
Take `COc1cc2c3cnc4cc5c(cc4c3c(=O)n(CCCN(C)C)c2cc1OC)OCO5`: the half-inhibitory concentration (IC50) in the test with KB 3-1 [1] turned out to be 4 nM; in the test with RPMI 8402 [2], 0.5 nM; with KB 3-1 [3] it was 3 nM; in test [5], 20 nM; in the test on KB [6] it was 7 nM; in the test on P388, 3 nM. This compound also gave a concentration for half-maximal inhibition (IC50) with RPMI 8402 [7] of 200 nM. Besides, the REC in test [4] stood at 3.
For `CC[C@@]1(O)C(=O)OCc2c1cc1n(c2=O)Cc2cc3ccccc3nc2-1` [CAMPTOTHECIN], the IC50 with KB 3-1 [1] was 20 nM; with RPMI 8402 [2], 6 nM; in the test with KB 3-1 [3] it was 10 nM; in test [5] it was over 10000 nM; with KB [6] it was 20 nM; in the test with P388, 10 nM. The same compound came in with an IC50 in the test on RPMI 8402 [7] of over 10000 nM. In [4], this compound came in with an REC of 1.
As for `COc1cc2c(C(=O)OCCN(C)C)cc3c4cc5c(cc4ncc3c2cc1OC)OCO5`, the IC50 in the test on RPMI 8402 [2] came to 30 nM; in the test on KB [8] it was 220 nM; in the test with KB 3-1 [9], 30 nM; in test [10] it was 20 nM; in the test with KB 3-1 [11] it was 70 nM; with P388, 10 nM. In the test on RPMI 8402 [7], this compound returned a concentration for half-maximal inhibition (IC50) of 730 nM. Moreover, in [4], the REC came to 5.
Turning to `COc1cc2c(C(=O)NCCCN(C)C)cc3c4cc5c(cc4ncc3c2cc1OC)OCO5`, the IC50 in the test on RPMI 8402 [2] is 50 nM; in the test with KB [8], 4500 nM; with KB 3-1 [9], 40 nM; in test [10], 340 nM; with KB 3-1 [11] it was 500 nM; in the test with P388, 30 nM. Also, the IC50 in the test with RPMI 8402 [7] was found to be 2050 nM. This compound returned an REC in [4] of 30.
Take `CCOC(=O)c1cc2c3cc4c(cc3ncc2c2cc(OC)c(OC)cc12)OCO4`: the IC50 came out at 80 nM with RPMI 8402 [2]; 340 nM in the test on KB [8]; 40 nM in the test on KB 3-1 [9]; 3250 nM in [10]; 110 nM in the test with KB 3-1 [11]; 40 nM in the test on P388. The same compound returned a half-inhibitory concentration (IC50) in the test on RPMI 8402 [7] of over 10000 nM. Besides, in test [4], the REC stood at 12.

Usually IC50 stands for the concentration needed to halve the response being measured.
